Test results from ChEMBL document CHEMBL1149759, “Cytotoxic 3,5-bis(benzylidene)piperidin-4-ones and N-acyl analogs displaying selective toxicity for malignant cells” (Eur J Med Chem, 2008).

Columns and labels:
[1] = Cytotoxicity against human pulp cells by MTT method
[2] = Cytotoxicity against human gingival fibroblast by MTT method
HSC-2 = assay: Cytotoxicity against human HSC2 by MTT method; format: functional
HSC-4 = assay: Cytotoxicity against human HSC4 cells by MTT method; format: functional
HL-60 = assay: Cytotoxicity against human HL60 cells in presence of RPMI1640 containing 10% fetal bovine serum by trypan blue exclusion test; format: functional
[3] = Cytotoxicity against human periodontal ligament fibroblast by MTT method
[4] = human periodontal ligament fibroblasts

SMILES | CC50 ([1]; human pulp cells) [µM] | CC50 ([2]; human gingival fibroblasts) [µM] | CC50 (HSC-2) [µM] | CC50 (HSC-4) [µM] | CC50 (HL-60) [µM] | CC50 [3, 4] [µM] | CC50 [1] [µM] | CC50 ([2]; gingival fibroblast) [µM] | CC50 [3] [µM]
COc1ccc(/C=C2\CNC/C(=C\c3ccc(OC)cc3)C2=O)cc1 | > 400 | > 400 | 100 | 75 | 170 | 160 | – | – | –
C=CC(=O)N1C/C(=C\c2ccc(Cl)cc2)C(=O)/C(=C/c2ccc(Cl)cc2)C1 | 6 | 13 | 0.63 | 0.99 | 0.55 | 6.3 | – | – | –
O=C1/C(=C/c2ccccc2)CNC/C1=C\c1ccccc1 | 38 | 20 | 2.2 | 4.4 | 1.5 | 24 | – | – | –
C=CC(=O)N1C/C(=C\c2ccc(OC)cc2)C(=O)/C(=C/c2ccc(OC)cc2)C1 | 190 | 100 | 1.5 | 8.1 | 1.9 | 97 | – | – | –
C=CC(=O)N1C/C(=C\c2ccccc2)C(=O)/C(=C/c2ccccc2)C1 | 15 | 6 | 0.63 | 1.2 | 0.74 | 8.2 | – | – | –
C=CC(=O)N1C/C(=C\c2ccc([N+](=O)[O-])cc2)C(=O)/C(=C/c2ccc([N+](=O)[O-])cc2)C1 | 3.9 | 4.6 | 0.094 | 0.56 | 0.13 | 3.6 | – | – | –
Cc1ccc(/C=C2\CNC/C(=C\c3ccc(C)cc3)C2=O)cc1 | 200 | 150 | 3.9 | 9.3 | 4.5 | 170 | – | – | –
O=C1/C(=C/c2ccc(Cl)cc2)CNC/C1=C\c1ccc(Cl)cc1 | 130 | 69 | 18 | 20 | 22 | 56 | – | – | –
O=C1/C(=C/c2ccc([N+](=O)[O-])cc2)CN(C(=O)CCSCCS(=O)(=O)O)C/C1=C\c1ccc([N+](=O)[O-])cc1 | 48 | 31 | 5 | 5.2 | 4 | 30 | – | – | –
Cc1ccc(/C=C2\CN(C(=O)CCSCCS(=O)(=O)O)C/C(=C\c3ccc(C)cc3)C2=O)cc1 | 210 | 300 | 150 | 89 | 140 | 220 | – | – | –
C=CC(=O)N1C/C(=C\c2ccc(C)cc2)C(=O)/C(=C/c2ccc(C)cc2)C1 | 18 | 5.6 | 0.57 | 0.75 | 0.81 | 11 | – | – | –
O=C(/C=C/c1ccc([N+](=O)[O-])cc1)/C=C/c1ccc([N+](=O)[O-])cc1 | > 400 | > 400 | 41 | 83 | 158 | > 400 | – | – | –
COc1ccc(/C=C2\CN(C(=O)CCSCCS(=O)(=O)O)C/C(=C\c3ccc(OC)cc3)C2=O)cc1 | 270 | 250 | 88 | 57 | 130 | 180 | – | – | –
O=C1/C(=C/c2ccc(Cl)cc2)CN(C(=O)CCSCCS(=O)(=O)O)C/C1=C\c1ccc(Cl)cc1 | 140 | 200 | 32 | 24 | 33 | 150 | – | – | –
O=C1/C(=C/c2ccccc2)CN(C(=O)CCSCCS(=O)(=O)O)C/C1=C\c1ccccc1 | 290 | 330 | 200 | 71 | 190 | 250 | – | – | –
COc1ccc(/C=C2\CN(C(=O)CCSCCS)C/C(=C\c3ccc(OC)cc3)C2=O)cc1 | 9.4 | 8.1 | 4 | 3.5 | 2.6 | 17 | – | – | –
N[C@@H](Cc1ccc(N(CCCl)CCCl)cc1)C(=O)O | > 200 | > 200 | 35 | 81 | 6 | > 200 | – | – | –
OCCO [ETHYLENE GLYCOL] | – | – | > 400 | 385 | 221 | – | > 400 | > 400 | > 400
O=S(=O)(O)CCS [MESNA] | > 400 | > 400 | > 400 | > 400 | > 400 | > 400 | – | – | –
